Experimental data: US7229635B2, “Pharmacotherapeutic process and composition for central nervous system disorders” (Indiana University Research and Technology Corporation, priority 2000, dated 2007)

Key:
[1] = tested on: kindled seizures (amygdala); conditions: delivery of about 10^−6 to about 10^−12 M TRH to the brain; Example 3 and Chepournova et al.; cited from earlier work
[2] = tested on: rat hippocampal slices; assay: 50 mM [K+]-stimulated glutamate release from superfused hippocampal slices; type: cell-based; conditions: for glutamate at 10 min. post stimulation: control 4.37±1.29, p<0.05; for peak 50 mM [K+]-stimulated glutamate release: control 48.05±8.59, p<0.001
Protocol: Enhanced excitatory amino acid release is suspected in pathways associated with seizures and excitotoxicity. In this regard, superfused hippocampal slices were used to investigate whether TRH could inhibit glutamate release in vitro. Rat hippocampi were removed and sliced transversely (500/μm) under low magnification. Slices were weighed, washed in cold saline, transferred to individual tissue chambers floated in a 37°/C. water bath, and were equilibrated in oxygenated (95% O2/5% CO2) Kreb's buffer (KRB) at 37° C. for 120 min. (0.5 ml/min). Slice chambers were then superfused 10 min. with KRB (control), or KRB containing 10 μM, 1 μM, or 0.1 μM TRH, respectively, prior to 5 min. stimulation with modified KRB (50 mM [K^+]±TRH). Fractions (1 min.) were collected during the 5 min. stimulation and for an additional 10 min. (0.5 ml/min.) thereafter, and analyzed for glutamate by HPLC.

[3] = tested on: Gαq/11 G-proteins; conditions: sustained TRH exposure to its receptor; cited from earlier work

## NC(=O)[C@@H]1CCCN1C(=O)[C@H](Cc1cnc[nH]1)NC(=O)[C@@H]1CCC(=O)N1 [TRH, Thyrotropin-releasing hormone]
[1]
  effect in kindling studies: anticonvulsant
[2]; 0.1 μM TRH
  glutamate at 10 min. post stimulation: 1.54±0.43 μMg/fraction
  peak 50 mM [K+]-stimulated glutamate release: 1.38±0.28 μMg/fraction
[2]; 1 μM TRH
  glutamate at 10 min. post stimulation: 1.11±0.26 μMg/fraction
  peak 50 mM [K+]-stimulated glutamate release: 1.54±0.33 μMg/fraction
[2]; 10 μM TRH
  glutamate at 10 min. post stimulation: 1.35±0.48 μMg/fraction
  peak 50 mM [K+]-stimulated glutamate release: 2.35±0.50 μMg/fraction
[2]; perfusion (5 min.) with KRB+10 μM TRH, FIG. 6
  effect on glutamate release by 50 mM [K+] stimulation given 15 min. later: significantly (p<0.05) blocked glutamate release
[3]
  reduction of Gαq/11 G-proteins: 20-70%
